{
  "source": "ChEMBL document CHEMBL2021885",
  "about": "“Triphenylbutanamines: kinesin spindle protein inhibitors with in vivo antitumor activity” (J Med Chem, 2012)",
  "key": {"[1]": {"molecular_target": "T1, Kinesin-like protein KIF7 (Homo sapiens) (UniProt Q2M1P5)", "T1 sequence (whole entry)": "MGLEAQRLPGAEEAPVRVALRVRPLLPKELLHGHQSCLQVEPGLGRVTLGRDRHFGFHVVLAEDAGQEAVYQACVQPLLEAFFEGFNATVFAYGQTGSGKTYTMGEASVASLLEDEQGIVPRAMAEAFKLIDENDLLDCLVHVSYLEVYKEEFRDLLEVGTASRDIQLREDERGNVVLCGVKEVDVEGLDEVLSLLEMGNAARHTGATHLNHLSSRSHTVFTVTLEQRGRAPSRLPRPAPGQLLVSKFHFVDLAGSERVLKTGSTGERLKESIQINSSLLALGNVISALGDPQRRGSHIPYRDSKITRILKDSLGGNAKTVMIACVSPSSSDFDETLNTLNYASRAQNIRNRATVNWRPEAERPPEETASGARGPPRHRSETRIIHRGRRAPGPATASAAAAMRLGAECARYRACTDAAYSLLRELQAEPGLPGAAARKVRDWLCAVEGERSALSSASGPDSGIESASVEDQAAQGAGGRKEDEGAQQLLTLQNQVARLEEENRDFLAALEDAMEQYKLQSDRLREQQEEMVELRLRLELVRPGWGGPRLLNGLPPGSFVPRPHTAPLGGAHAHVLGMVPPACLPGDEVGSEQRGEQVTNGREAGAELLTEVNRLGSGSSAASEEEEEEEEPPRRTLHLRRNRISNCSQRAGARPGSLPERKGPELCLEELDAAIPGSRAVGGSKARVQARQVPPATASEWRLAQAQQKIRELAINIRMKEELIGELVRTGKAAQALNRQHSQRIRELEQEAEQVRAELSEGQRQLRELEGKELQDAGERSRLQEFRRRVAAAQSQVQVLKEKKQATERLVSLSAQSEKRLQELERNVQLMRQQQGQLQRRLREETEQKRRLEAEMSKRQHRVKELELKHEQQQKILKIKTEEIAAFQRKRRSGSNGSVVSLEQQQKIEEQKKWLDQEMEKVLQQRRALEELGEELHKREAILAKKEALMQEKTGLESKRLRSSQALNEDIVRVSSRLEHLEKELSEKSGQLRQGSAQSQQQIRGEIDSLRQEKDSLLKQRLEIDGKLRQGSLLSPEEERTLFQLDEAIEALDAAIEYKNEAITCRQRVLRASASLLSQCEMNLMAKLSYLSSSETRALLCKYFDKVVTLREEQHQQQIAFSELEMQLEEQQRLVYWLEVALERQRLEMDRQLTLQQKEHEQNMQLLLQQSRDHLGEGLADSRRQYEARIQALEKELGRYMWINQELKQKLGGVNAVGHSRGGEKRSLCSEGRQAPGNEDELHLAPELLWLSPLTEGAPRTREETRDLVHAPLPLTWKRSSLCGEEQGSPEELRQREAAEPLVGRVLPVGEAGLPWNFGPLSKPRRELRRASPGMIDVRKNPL", "assay": "Inhibition of MT-stimulated Kif7 ATPase activity"}, "[2]": {"molecular_target": "Centromere-associated protein E (Homo sapiens) (UniProt Q02224)", "sequence (Q02224 whole entry)": "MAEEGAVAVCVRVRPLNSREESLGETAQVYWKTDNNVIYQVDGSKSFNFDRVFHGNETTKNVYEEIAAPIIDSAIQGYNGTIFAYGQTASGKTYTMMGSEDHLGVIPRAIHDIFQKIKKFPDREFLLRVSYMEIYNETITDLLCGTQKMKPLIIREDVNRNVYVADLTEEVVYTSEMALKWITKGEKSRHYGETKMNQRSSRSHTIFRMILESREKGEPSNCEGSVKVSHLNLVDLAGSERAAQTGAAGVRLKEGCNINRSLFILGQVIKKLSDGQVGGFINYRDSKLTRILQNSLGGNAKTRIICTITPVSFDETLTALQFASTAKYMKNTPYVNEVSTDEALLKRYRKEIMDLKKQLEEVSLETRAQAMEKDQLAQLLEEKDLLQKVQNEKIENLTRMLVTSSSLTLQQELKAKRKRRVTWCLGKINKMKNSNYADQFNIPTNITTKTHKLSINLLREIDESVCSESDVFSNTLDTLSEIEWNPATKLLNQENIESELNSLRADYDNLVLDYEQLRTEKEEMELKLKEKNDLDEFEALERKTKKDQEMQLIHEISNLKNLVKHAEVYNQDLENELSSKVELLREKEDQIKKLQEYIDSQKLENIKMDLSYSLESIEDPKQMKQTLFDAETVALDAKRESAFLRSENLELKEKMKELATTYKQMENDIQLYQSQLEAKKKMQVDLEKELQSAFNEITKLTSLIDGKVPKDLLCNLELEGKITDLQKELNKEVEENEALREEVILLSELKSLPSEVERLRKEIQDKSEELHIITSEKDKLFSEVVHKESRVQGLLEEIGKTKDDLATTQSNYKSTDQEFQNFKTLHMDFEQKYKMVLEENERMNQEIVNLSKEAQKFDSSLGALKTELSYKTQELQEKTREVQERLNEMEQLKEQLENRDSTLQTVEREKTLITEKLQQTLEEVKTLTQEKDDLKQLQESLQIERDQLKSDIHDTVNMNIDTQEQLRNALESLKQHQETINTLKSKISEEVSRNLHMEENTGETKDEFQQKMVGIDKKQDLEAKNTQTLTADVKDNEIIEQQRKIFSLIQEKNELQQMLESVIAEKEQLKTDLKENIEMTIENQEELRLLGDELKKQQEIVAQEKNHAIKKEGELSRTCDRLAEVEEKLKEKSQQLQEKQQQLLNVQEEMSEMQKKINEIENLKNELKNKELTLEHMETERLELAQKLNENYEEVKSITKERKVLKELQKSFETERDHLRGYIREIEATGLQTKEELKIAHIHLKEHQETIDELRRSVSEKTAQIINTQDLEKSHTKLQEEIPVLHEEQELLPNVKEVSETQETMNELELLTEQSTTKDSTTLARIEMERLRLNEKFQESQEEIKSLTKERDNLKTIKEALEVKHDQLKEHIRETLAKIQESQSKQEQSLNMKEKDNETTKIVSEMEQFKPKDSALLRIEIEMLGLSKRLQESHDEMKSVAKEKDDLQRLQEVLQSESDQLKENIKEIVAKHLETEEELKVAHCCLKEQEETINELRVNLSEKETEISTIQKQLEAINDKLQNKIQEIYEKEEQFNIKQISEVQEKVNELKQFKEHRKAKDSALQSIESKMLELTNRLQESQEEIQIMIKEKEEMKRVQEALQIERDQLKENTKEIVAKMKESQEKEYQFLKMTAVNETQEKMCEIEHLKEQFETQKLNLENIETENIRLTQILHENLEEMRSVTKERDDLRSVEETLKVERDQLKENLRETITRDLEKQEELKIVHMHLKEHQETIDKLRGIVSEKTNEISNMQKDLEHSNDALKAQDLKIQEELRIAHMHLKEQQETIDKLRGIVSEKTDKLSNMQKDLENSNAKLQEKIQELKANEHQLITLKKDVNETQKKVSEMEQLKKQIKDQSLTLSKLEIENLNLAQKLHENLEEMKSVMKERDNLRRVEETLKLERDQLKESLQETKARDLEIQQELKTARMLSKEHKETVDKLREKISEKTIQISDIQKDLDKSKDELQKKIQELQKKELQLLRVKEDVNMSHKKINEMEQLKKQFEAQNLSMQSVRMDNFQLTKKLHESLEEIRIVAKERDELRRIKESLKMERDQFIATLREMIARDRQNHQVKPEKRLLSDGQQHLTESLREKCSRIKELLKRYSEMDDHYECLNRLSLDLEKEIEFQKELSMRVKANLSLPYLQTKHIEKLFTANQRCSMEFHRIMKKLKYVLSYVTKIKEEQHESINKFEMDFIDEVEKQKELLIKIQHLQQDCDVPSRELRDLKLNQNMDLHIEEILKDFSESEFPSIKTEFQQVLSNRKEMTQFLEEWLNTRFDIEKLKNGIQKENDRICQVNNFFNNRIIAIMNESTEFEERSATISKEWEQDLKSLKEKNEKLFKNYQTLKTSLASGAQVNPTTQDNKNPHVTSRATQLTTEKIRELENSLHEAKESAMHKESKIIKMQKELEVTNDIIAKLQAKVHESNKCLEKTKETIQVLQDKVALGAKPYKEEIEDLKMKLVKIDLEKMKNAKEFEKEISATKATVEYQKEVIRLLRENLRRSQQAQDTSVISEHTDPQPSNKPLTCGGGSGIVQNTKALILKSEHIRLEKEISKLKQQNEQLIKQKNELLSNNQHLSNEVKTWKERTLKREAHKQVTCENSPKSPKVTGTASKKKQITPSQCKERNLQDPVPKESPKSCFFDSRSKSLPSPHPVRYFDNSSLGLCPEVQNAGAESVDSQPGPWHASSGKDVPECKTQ", "assay": "Inhibition of CENP-E ATPase activity"}, "HCT-116": {"tested_on": "HCT-116", "assay": "Antiproliferative activity against human HCT116 cells after 72 hrs by Alamar blue assay", "type": "functional", "conditions": "HCT-116, 72 h"}, "[3]": {"molecular_target": "T2, Kinesin heavy chain isoform 5A (Homo sapiens) (UniProt Q12840)", "T2 sequence (whole entry)": "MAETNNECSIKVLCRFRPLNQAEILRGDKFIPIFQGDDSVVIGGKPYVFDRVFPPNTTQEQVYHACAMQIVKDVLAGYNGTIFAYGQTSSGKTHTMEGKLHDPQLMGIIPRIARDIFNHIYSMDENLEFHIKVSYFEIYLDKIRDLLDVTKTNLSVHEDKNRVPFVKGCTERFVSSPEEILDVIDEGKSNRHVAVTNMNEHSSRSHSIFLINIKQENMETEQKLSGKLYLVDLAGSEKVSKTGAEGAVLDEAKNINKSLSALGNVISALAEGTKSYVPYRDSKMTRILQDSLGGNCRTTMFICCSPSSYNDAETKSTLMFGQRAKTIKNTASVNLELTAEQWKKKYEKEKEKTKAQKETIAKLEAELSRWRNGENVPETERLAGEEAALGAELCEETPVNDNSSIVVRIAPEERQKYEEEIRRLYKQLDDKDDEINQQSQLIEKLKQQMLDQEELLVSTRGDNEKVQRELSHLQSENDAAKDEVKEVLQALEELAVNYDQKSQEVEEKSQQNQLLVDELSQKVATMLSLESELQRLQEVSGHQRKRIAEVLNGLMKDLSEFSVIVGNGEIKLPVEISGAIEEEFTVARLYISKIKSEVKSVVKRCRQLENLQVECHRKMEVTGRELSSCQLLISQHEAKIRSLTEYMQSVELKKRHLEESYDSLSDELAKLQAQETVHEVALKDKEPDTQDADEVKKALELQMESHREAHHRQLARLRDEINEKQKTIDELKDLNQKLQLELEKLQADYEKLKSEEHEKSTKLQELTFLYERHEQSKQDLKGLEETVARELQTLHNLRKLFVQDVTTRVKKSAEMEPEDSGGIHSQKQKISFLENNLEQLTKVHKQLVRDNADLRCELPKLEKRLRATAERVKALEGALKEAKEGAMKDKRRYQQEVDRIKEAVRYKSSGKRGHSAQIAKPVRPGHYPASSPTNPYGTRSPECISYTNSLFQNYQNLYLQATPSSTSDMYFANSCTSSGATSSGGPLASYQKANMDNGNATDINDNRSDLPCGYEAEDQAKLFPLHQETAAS", "assay": "Inhibition of MT-stimulated Kif5a ATPase activity"}, "NCI-H1299": {"tested_on": "NCI-H1299", "assay": "Antiproliferative activity against human NCI-H1299 cells after 72 hrs by Alamar blue assay", "type": "functional", "conditions": "NCI-H1299, 72 h"}, "[4]": {"assay": "Turbidimetric solubility of the compound at pH 7.4", "type": "physicochemical", "conditions": "buffer"}, "[5]": {"molecular_target": "Centromere-associated protein E (Homo sapiens) (UniProt Q02224)", "assay": "Inhibition of MT-stimulated CENP-E ATPase activity"}, "[6]": {"assay": "Antiproliferative activity against human hTERT-HME1 cells after 72 hrs by Alamar blue assay", "type": "cell-based"}, "[7]": {"molecular_target": "T1, Kinesin-like protein KIF7 (Homo sapiens)", "assay": "Inhibition of Kif7 ATPase activity"}, "[8]": {"assay": "Lipophilicity, Log P of the compound", "type": "physicochemical", "conditions": "octanol/water; read-out: logP"}, "[9]": {"molecular_target": "Kinesin-like protein KIF20B (Homo sapiens) (UniProt Q96Q89)", "sequence (Q96Q89 whole entry)": "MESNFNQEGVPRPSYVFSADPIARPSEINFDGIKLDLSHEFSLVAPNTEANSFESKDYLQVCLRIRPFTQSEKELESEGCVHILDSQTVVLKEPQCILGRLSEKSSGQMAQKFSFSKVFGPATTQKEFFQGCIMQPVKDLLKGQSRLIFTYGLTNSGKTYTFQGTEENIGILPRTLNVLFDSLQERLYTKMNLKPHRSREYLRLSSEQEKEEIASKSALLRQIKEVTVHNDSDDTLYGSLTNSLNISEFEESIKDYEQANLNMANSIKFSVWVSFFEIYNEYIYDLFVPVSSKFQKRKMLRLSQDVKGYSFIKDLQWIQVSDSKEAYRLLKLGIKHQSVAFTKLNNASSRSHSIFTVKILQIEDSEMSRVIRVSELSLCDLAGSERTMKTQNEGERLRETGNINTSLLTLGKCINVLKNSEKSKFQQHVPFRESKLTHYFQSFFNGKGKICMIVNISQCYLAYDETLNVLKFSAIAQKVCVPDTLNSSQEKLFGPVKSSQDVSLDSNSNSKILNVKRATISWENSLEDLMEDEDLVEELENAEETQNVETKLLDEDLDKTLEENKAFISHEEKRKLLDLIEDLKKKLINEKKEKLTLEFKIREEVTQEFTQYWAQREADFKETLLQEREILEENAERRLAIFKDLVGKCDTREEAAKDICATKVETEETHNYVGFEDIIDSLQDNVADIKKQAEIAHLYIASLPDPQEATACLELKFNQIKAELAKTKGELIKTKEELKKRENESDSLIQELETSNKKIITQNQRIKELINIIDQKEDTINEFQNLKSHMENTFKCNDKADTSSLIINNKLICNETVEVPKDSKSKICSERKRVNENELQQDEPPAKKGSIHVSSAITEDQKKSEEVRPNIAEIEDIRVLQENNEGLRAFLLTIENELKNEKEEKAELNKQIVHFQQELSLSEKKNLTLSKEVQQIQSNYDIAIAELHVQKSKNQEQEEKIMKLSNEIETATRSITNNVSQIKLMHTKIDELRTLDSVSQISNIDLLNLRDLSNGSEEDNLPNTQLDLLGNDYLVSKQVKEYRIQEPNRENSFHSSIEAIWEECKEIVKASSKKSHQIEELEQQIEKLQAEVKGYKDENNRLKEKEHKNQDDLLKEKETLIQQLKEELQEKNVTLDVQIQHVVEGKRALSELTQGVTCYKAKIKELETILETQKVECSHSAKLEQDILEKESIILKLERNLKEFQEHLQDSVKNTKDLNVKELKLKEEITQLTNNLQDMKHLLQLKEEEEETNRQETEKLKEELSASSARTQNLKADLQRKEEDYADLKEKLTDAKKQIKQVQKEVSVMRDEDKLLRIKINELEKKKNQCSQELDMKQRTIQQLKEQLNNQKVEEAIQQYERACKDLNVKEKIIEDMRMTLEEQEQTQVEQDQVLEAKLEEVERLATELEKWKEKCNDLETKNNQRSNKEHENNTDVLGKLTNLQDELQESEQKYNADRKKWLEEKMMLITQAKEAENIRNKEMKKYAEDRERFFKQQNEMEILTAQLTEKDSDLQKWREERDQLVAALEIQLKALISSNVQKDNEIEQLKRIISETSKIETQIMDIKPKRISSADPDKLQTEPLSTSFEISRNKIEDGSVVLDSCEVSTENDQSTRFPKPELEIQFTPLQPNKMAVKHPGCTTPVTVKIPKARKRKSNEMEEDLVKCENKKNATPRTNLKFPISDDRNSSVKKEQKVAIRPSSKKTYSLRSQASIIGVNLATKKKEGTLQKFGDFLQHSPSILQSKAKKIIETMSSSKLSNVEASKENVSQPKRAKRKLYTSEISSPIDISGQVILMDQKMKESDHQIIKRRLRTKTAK", "assay": "Inhibition of MT-stimulated MPP1 ATPase activity"}, "[10]": {"assay": "Distribution coefficient, log D of the compound at pH 7.4", "type": "physicochemical", "conditions": "octanol/water, read-out: logD"}, "[11]": {"assay": "Turbidimetric solubility of the compound at pH 2", "type": "physicochemical", "conditions": "buffer"}, "[12]": {"molecular_target": "T2, Kinesin heavy chain isoform 5A (Homo sapiens)", "assay": "Inhibition of Kif5a ATPase activity"}, "[13]": {"assay": "Antitumor activity against human LXFS 538 cells xenografted in nu/nu nude Charles river mouse assessed as tumor volume doubling time at 20 mg/kg on days 0, 2 and 4 and 15 mg/kg on days 17, 19, 24 measured after 28 days (reference value: 8.8 days)", "type": "functional"}, "BXPC-3": {"tested_on": "BXPC-3", "assay": "Antiproliferative activity against human BxPC3 cells after 72 hrs by Alamar blue assay", "type": "functional", "conditions": "BXPC-3, 72 h"}},
  "note": "Calls of active or inactive are those of the source. The rule behind the calls is not given here.",
  "data": [
    {"smiles": "Cc1cccc(C(CCC(N)C(=O)O)(c2ccccc2)c2ccccc2)c1", "note": "(racemic)", "values": [
      {"measurement": "inhibition", "setting": "[1]", "value": "inactive"},
      {"measurement": "inhibition", "setting": "[2]", "value": "inactive"},
      {"measurement": "GI50", "setting": "HCT-116", "value": 99, "unit": "nM"},
      {"measurement": "inhibition", "setting": "[3]", "value": "inactive"},
      {"measurement": "GI50", "setting": "NCI-H1299", "value": 137, "unit": "nM"},
      {"measurement": "solubility kinetic", "setting": "[4]", "value": "> 100", "unit": "µM"},
      {"measurement": "inhibition", "setting": "[5]", "value": "inactive"},
      {"measurement": "GI50 at 72 h", "setting": "[6]", "value": 38, "unit": "nM"},
      {"measurement": "inhibition", "setting": "[7]", "value": "inactive"},
      {"measurement": "logP", "setting": "[8]", "value": 2.45},
      {"measurement": "inhibition", "setting": "[9]", "value": "inactive"},
      {"measurement": "logD", "setting": "[10]", "value": 2.45},
      {"measurement": "solubility kinetic", "setting": "[11]", "value": "> 100", "unit": "µM"},
      {"measurement": "inhibition", "setting": "[12]", "value": "inactive"},
      {"measurement": "Time", "setting": "[13]", "value": 28.7, "unit": "days"},
      {"measurement": "GI50", "setting": "BXPC-3", "value": 144, "unit": "nM"}
    ]}
  ]
}
